Several values for one entry are separate records, joined by “and”; a condition that tells them apart may be missing. Identical values can stand only once. Toxic doses and inconclusive results are not listed.
Tested on: L1210 leukemia ip in BDF1 mice, survival T/C
Test: NCI In Vivo Anticancer Drug Screen. Data for tumor model L1210 Leukemia (intraperitoneal) in B6D2F1 (BDF1) mice
Conditions: endpoint: mean survival time, higher = longer survival
Outline: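 Survival endpoint. Drug-treated group vs vehicle group, expressed as T divided by C. Tumor passaged by transplantation.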

[1] = dose: 100.0 mg/kg/injection, schedule: Q01DX009 (ip), vehicle: saline sonified
[2] = dose: 200.0 mg/kg/injection, schedule: Q01DX009 (ip), vehicle: saline sonified
[3] = dose: 100.0 mg/kg/injection, schedule: Q01DX001 (ip), vehicle: carboxymethylcellulose (CMC)
[4] = dose: 200.0 mg/kg/injection, schedule: Q01DX001 (ip), vehicle: carboxymethylcellulose (CMC)
[5] = dose: 400.0 mg/kg/injection, schedule: Q01DX001 (ip), vehicle: carboxymethylcellulose (CMC)
[6] = dose: 100.0 mg/kg/injection, schedule: Q04DX003 (ip), vehicle: Klucel (hydroxypropylcellulose) (HPC)
[7] = dose: 200.0 mg/kg/injection, schedule: Q04DX003 (ip), vehicle: Klucel (hydroxypropylcellulose) (HPC)
[8] = dose: 100.0 mg/kg/injection, schedule: Q01DX001 (ip), vehicle: saline
[9] = dose: 200.0 mg/kg/injection, schedule: Q01DX001 (ip), vehicle: saline

For `CC(C)/C=N\O`, the T/C (dose: 100.0 mg/kg/injection, schedule: Q04DX003 (ip), vehicle: saline with Tween-80) was 104 % of control, the T/C (dose: 200.0 mg/kg/injection, schedule: Q04DX003 (ip), vehicle: saline with Tween-80) was 123 % of control and the T/C (dose: 400.0 mg/kg/injection, schedule: Q04DX003 (ip), vehicle: saline with Tween-80) was 109 % of control.

For `CCCCCC(C)(C1=NC(C)(C)CC(C)O1)c1ccccc1` (configuration not stated), the T/C [1] was 93 % of control, the T/C [2] was 104 % of control and the T/C (dose: 400.0 mg/kg/injection, schedule: Q01DX009 (ip), vehicle: saline sonified) was 93 % of control.

For `CCCCC(=O)N/N=C\c1cccc([N+](=O)[O-])c1`, the T/C [3] was 92 % of control, the T/C [4] was 92 % of control and the T/C [5] was 95 % of control.

In the case of `Nc1[nH]c(=S)[nH]c(=O)c1NC=O`, the T/C (dose: 16.0 mg/kg/injection, schedule: Q01DX Z (ip), vehicle: methylcellulose (MC)) is reported as 103 % of control, the T/C (dose: 31.0 mg/kg/injection, schedule: Q01DX Z (ip), vehicle: methylcellulose (MC)) is reported as 106 % of control and the T/C (dose: 62.0 mg/kg/injection, schedule: Q01DX Z (ip), vehicle: methylcellulose (MC)) is reported as 108 % of control. The T/C (dose: 125.0 mg/kg/injection, schedule: Q01DX Z (ip), vehicle: methylcellulose (MC)) was 96 % of control and 97 % of control, the T/C (dose: 250.0 mg/kg/injection, schedule: Q01DX Z (ip), vehicle: methylcellulose (MC)) was 100 % of control and the T/C (dose: 500.0 mg/kg/injection, schedule: Q01DX Z (ip), vehicle: methylcellulose (MC)) was 112 % of control.

`COC1=NS(=O)(=O)C2CCCC/C=C\C2O1` (configuration not stated) was tested, and the T/C (dose: 150.0 mg/kg/injection, schedule: Q04DX002 (ip), vehicle: Klucel (hydroxypropylcellulose) (HPC)) was 110 % of control and the T/C (dose: 300.0 mg/kg/injection, schedule: Q04DX002 (ip), vehicle: Klucel (hydroxypropylcellulose) (HPC)) was 103 % of control.

For `O=[N+]([O-])c1ccc(S(=O)(=O)Oc2ccccc2)cc1`, the T/C (dose: 50.0 mg/kg/injection, schedule: Q01DX009 (ip), vehicle: saline sonified) was 93 % of control, the T/C [1] was 103 % of control and the T/C [6] was 98 % of control. The T/C [2] was 92 % of control and the T/C [7] was 91 % of control.

With `CCN(CC)C(=S)SCn1nc(Cl)c2ccc([N+](=O)[O-])cc21` the T/C [8] was 98 % of control, the T/C [9] was 98 % of control and the T/C (dose: 400.0 mg/kg/injection, schedule: Q01DX001 (ip), vehicle: saline) was 91 % of control.

In the case of `CSc1ncnc2c1nnn2C1OC(CO)C(O)C1O` (configuration not stated), the T/C (dose: 12.5 mg/kg/injection, schedule: Q01DX001 (ip), vehicle: saline) is reported as 97 % of control, the T/C (dose: 25.0 mg/kg/injection, schedule: Q01DX001 (ip), vehicle: saline) is reported as 103 % of control and the T/C (dose: 50.0 mg/kg/injection, schedule: Q01DX001 (ip), vehicle: saline) is reported as 115 % of control. The T/C (dose: 75.0 mg/kg/injection, schedule: Q01DX001 (ip), vehicle: saline) was 114 % of control, the T/C [8] was 110 % of control and the T/C (dose: 150.0 mg/kg/injection, schedule: Q01DX001 (ip), vehicle: saline) was 110 % of control.

For `CC(C)(C)c1ccc(C(=O)O)cc1Br`, the T/C (dose: 50.0 mg/kg/injection, schedule: Q04DX003 (ip), vehicle: other) was 104 % of control, the T/C (dose: 100.0 mg/kg/injection, schedule: Q04DX003 (ip), vehicle: other) was 113 % of control and the T/C (dose: 200.0 mg/kg/injection, schedule: Q04DX003 (ip), vehicle: other) was 98 % of control.

With `CC(O)c1ccc(-c2ccccc2)cc1` (configuration not stated) the T/C (dose: 100.0 mg/kg/injection, schedule: Q01DX009 (ip), vehicle: Klucel (hydroxypropylcellulose) (HPC)) was 94 % of control, the T/C [6] was 95 % of control and the T/C (dose: 200.0 mg/kg/injection, schedule: Q01DX009 (ip), vehicle: Klucel (hydroxypropylcellulose) (HPC)) was 97 % of control. For the same compound, the T/C [7] was 101 % of control, the T/C (dose: 400.0 mg/kg/injection, schedule: Q01DX009 (ip), vehicle: Klucel (hydroxypropylcellulose) (HPC)) was 111 % of control and the T/C (dose: 400.0 mg/kg/injection, schedule: Q04DX003 (ip), vehicle: Klucel (hydroxypropylcellulose) (HPC)) was 98 % of control.

With `CCCCCCCCCCCCCCCCCOc1ccc(I)cc1` the T/C [6] was 91 % of control and the T/C [7] was 91 % of control.

In the case of `CCOc1ccc(NC(N)=O)cc1`, the T/C (dose: 100.0 mg/kg/injection, schedule: Q04DX002 (ip), vehicle: gum acacia) is reported as 107 % of control, the T/C (dose: 200.0 mg/kg/injection, schedule: Q04DX002 (ip), vehicle: gum acacia) is reported as 95 % of control and the T/C (dose: 400.0 mg/kg/injection, schedule: Q04DX002 (ip), vehicle: gum acacia) is reported as 100 % of control.

`CC(=O)Nc1c(O)c(Cl)c(Cl)c(Cl)c1Cl` was tested, and the T/C (dose: 100.0 mg/kg/injection, schedule: Q04DX003 (ip), vehicle: saline) was 105 % of control, the T/C (dose: 200.0 mg/kg/injection, schedule: Q04DX003 (ip), vehicle: saline) was 101 % of control and the T/C (dose: 400.0 mg/kg/injection, schedule: Q04DX003 (ip), vehicle: saline) was 94 % of control.

`O=[N+]([O-])c1cccc([N+](=O)[O-])c1Cl` was tested, and the T/C [3] was 114 % of control, the T/C [4] was 108 % of control and the T/C [5] was 108 % of control.

`C1OC1CN1CCN(CC2CO2)CC1` (configuration not stated) was tested, and the T/C (dose: 1.2 mg/kg/injection, schedule: Q01DX009 (ip), vehicle: saline) was 101 % of control, the T/C (dose: 1.8 mg/kg/injection, schedule: Q01DX009 (ip), vehicle: saline) was 117 % of control and the T/C (dose: 2.0 mg/kg/injection, schedule: Q03HX008 (ip), vehicle: saline) was 117 % of control. For the same compound, the T/C (dose: 2.0 mg/kg/injection, schedule: Q03HX016 (ip), vehicle: saline) was 102 % of control, the T/C (dose: 2.0 mg/kg/injection, schedule: Q03HX024 (ip), vehicle: saline) was 121 % of control and the T/C (dose: 3.5 mg/kg/injection, schedule: Q01DX009 (ip), vehicle: saline) was 118 % of control. For the same compound, the T/C (dose: 4.0 mg/kg/injection, schedule: Q03HX008 (ip), vehicle: saline) was 114 % of control, the T/C (dose: 4.0 mg/kg/injection, schedule: Q03HX016 (ip), vehicle: saline) was 114 % of control and the T/C (dose: 6.25 mg/kg/injection, schedule: Q01DX009 (ip), vehicle: saline) was 121 % of control. The T/C (dose: 8.0 mg/kg/injection, schedule: Q01DX009 (sc), vehicle: saline) was 101 % of control, the T/C (dose: 8.0 mg/kg/injection, schedule: Q03HX008 (ip), vehicle: saline) was 114 % of control and the T/C (dose: 8.0 mg/kg/injection, schedule: Q03HX016 (ip), vehicle: saline) was 94 % of control. The T/C (dose: 12.5 mg/kg/injection, schedule: Q01DX009 (ip), vehicle: saline) was 164 % of control, the T/C (dose: 15.0 mg/kg/injection, schedule: Q01DX009 (ip), vehicle: saline) was 157 % of control and the T/C (dose: 16.0 mg/kg/injection, schedule: Q01DX001 (sc), vehicle: saline) was 106 % of control. The T/C (dose: 16.0 mg/kg/injection, schedule: Q01DX009 (sc), vehicle: saline) was 106 % of control, the T/C (dose: 30.0 mg/kg/injection, schedule: Q01DX009 (ip), vehicle: saline) was 208 % of control and the T/C (dose: 32.0 mg/kg/injection, schedule: Q01DX001 (oral), vehicle: saline) was 113 % of control. The T/C (dose: 32.0 mg/kg/injection, schedule: Q01DX001 (sc), vehicle: saline) was 98 % of control, the T/C (dose: 32.0 mg/kg/injection, schedule: Q01DX009 (ip), vehicle: saline) was 102 % of control and the T/C (dose: 32.0 mg/kg/injection, schedule: Q01DX009 (oral), vehicle: saline) was 153 % of control. The T/C (dose: 32.0 mg/kg/injection, schedule: Q04DX003 (ip), vehicle: saline) was 165 % of control, the T/C (dose: 50.0 mg/kg/injection, schedule: Q01DX009 (ip), vehicle: saline) was 111 % of control and the T/C (dose: 60.0 mg/kg/injection, schedule: Q01DX009 (ip), vehicle: saline) was 92 % of control. For the same compound, the T/C (dose: 64.0 mg/kg/injection, schedule: Q01DX001 (oral), vehicle: saline) was 123 % of control, the T/C (dose: 64.0 mg/kg/injection, schedule: Q01DX001 (sc), vehicle: saline) was 113 % of control and the T/C (dose: 64.0 mg/kg/injection, schedule: Q01DX009 (oral), vehicle: saline) was 165 % of control. The T/C (dose: 64.0 mg/kg/injection, schedule: Q01DX009 (sc), vehicle: saline) was 160 % of control, the T/C [8] was 176 % of control and the T/C (dose: 120.0 mg/kg/injection, schedule: Q01DX001 (ip), vehicle: saline) was 182 % of control. For the same compound, the T/C (dose: 128.0 mg/kg/injection, schedule: Q01DX001 (sc), vehicle: saline) was 116 % of control, the T/C (dose: 180.0 mg/kg/injection, schedule: Q01DX001 (ip), vehicle: saline) was 168 % of control and the T/C [9] was 90 % of control. For the same compound, the T/C (dose: 256.0 mg/kg/injection, schedule: Q01DX001 (sc), vehicle: saline) was 151 % of control.

For `CNC(=S)N(C)N=O`, the T/C (dose: 100.0 mg/kg/injection, schedule: Q01DX Z (ip), vehicle: methylcellulose (MC)) was 97 % of control and the T/C (dose: 200.0 mg/kg/injection, schedule: Q01DX Z (ip), vehicle: methylcellulose (MC)) was 120 % of control.

Source: PubChem BioAssay AID248 (DTP/NCI, 2004)
